Measured values from patent US6838465B2, “N-acyltetrahydroisoquinoline derivatives” (Banyu Pharmaceutical Co., Ltd., priority 2000, dated 2005).

Experiments:
[1] = biological target: T1, human OX1 receptor (Homo sapiens, UniProt O43613); assay: Inhibition of orexin A-induced increase in intracellular calcium concentration (FLIPR), OX1 receptor expressing CHO-K1 cells; assay type: cell-based; conditions: CHO-K1 cells stably expressing human OX1 receptor; 0.3 nM orexin A; compound added 5 minutes before; fluo-3 AM; read-out: 50% Inhibition concentration, OX1 receptor
T1 construct: expressed in transfected cells
T1 sequence (O43613 1-425): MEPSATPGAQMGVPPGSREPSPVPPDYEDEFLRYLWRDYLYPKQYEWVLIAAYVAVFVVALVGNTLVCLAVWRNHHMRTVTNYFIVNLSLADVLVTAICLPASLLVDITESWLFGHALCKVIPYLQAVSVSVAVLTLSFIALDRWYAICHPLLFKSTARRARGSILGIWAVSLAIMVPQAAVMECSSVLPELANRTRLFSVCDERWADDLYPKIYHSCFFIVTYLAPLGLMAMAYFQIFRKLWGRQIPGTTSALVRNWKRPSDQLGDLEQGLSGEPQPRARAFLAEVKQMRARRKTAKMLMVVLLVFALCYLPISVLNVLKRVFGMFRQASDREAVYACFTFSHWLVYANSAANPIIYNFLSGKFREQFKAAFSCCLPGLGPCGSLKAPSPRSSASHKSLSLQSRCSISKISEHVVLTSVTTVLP
Description: (§1) A cDNA sequence encoding human orexin OX1 receptor or OX2 receptor (see GenBank, accession number AF 041243 and AF 041245) was cloned into the EcoRV-EcoRI site of a mamal expressed plasmid vector pIRESIneo (made by Clontech Laboratories, Inc.) and the PmlI-XbaI site of a mamal expressed plasmid vector pEF/myc/cyto (made by Invitrogen Corp.). The resulting vectors were respectively transfected into Chinese hamster's ovarian cells CHO-K1 (Americam Type Culture Collection, ATCC number CCL-61). Then, cells having resistance to 2 mg/ml of Geneticin (G418, made by Life Technologies, Inc.) were selected to obtain a cell line stably expressing a human OX1 receptor and a cell line stably expressing a human OX2 receptor. The OX1 receptor or OX2 receptor stably expressing cells were made to take up fluo-3, AM (made by Molecualr Probes Inc.), a fluorescent indicator of calcium concentration, and then 0.3 nM of orexin A was added to a suspension of the cells in an assay buffer (Hank's […] salt solution adjusted to pH 7.4 and containing 20 mM HEPES, 0.5% bovine serum albumin and 2.5 mM probenecid), and the change of the intracellular calcium concentration was measured with time lapse using FLIPR (Fluorometric Imaging Plate Reader, made by Molecular Devices Corp.). The effect of a test compound influencing the increase in the intracellular calcium concentration was assayed by adding the test compound in various concentrations to the assay solutions, 5 minutes before the addition of orexin A, and the 50% inhibition concentration (IC50 value) of the test compound against the increase in intracellular calcium concentration caused by the addition of 0.3 nM orexin A was determined (Table 1).

[2] = biological target: T2, human OX2 receptor (Homo sapiens, UniProt O43614); assay: Inhibition of orexin A-induced increase in intracellular calcium concentration (FLIPR), OX2 receptor expressing CHO-K1 cells; assay type: cell-based; conditions: CHO-K1 cells stably expressing human OX2 receptor; 0.3 nM orexin A; compound added 5 minutes before; fluo-3 AM; read-out: 50% Inhibition concentration, OX2 receptor
T2 construct: expressed in transfected cells
T2 sequence (O43614 1-444): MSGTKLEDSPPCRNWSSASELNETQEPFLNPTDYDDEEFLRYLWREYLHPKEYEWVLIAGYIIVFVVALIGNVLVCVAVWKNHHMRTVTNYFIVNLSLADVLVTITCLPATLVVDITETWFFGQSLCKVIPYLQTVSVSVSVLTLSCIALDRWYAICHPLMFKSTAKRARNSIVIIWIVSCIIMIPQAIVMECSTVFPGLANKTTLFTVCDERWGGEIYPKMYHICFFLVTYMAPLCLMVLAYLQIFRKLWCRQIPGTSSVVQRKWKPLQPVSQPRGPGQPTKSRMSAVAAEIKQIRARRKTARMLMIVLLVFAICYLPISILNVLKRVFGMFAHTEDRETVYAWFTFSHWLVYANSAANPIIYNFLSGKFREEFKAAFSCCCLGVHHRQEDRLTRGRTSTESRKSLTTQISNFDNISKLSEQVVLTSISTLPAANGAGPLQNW
Description: as §1

IC50 [1] [nM] | IC50 [2] [nM] | SMILES
24000 | 110 | COc1cc2c(cc1OC)CN(C(=O)[C@@H](NCc1ccncc1)C(C)(C)C)CC2 [Example 6, (2S)-2-(N-4-pyridylmethyl)amino-1-(6,7-dimethoxy-1,2,3,4-tetrahydroisoquinolin-2yl)-3,3-dimethylbutan-1-one]
17000 | 49 | COc1cc2c(cc1OC)CN(C(=O)[C@@H](NCc1nccs1)C(C)(C)C)CC2 [Example 8, (2S)-1-(6,7-dimethoxy-1,2,3,4-tetrahydroisoquinolin-2-yl)-3,3-dimethyl-2-((2-thiazolylmethyl)amino)butan-1-one]
4400 | 140 | COc1cc2c(cc1OC)CN(C(=O)[C@@H](NCc1cccc(Br)c1)C(C)(C)C)CC2 [Example 23, (2S)-2-(3-bromobenzylamino)-1-(6,7-dimethoxy-1,2,3,4-tetrahydroisoquinolin-2-yl)-3,3-dimethylbutan-1-one]

SMILES | IC50 [1] [nM] | IC50 [2] [nM]
COc1cc2c(cc1OC)CN(C(=O)C(Cc1ccccc1)NC(=O)c1cc(Cl)cc(Cl)c1)CC2 (centres unmarked) [Example 4, N-[2-(6,7-dimethoxy-1,2,3,4-tetrahydroisoquinolin-2-yl)-2-oxo-1-benzylethyl](3,5-dichlorophenyl)carboxyamide] | 5300 | 31
